Measured values reported in patent publication US6649637B2, “Inhibition of intracellular replication by pyridinylimidazoles” (priority 2001, dated 2003).
Like-named read-outs stand apart in the source and are kept apart here.

Legend:
T. gondii [1] = conditions: cited from earlier work
mutant tachyzoite SBRRH2 = experiment: Replication of SB203580-resistant RH clone SBRRH2 in fibroblasts; type: cell-based, Toxoplasma gondii
[2] = test system: T. gondii RH strain tachyzoites; experiment: [3H]methyluracil incorporation: intracellular tachyzoite replication in human fibroblasts, RH strain; type: cell-based, Toxoplasma gondii; conditions: drug added 6 hours after infection; for inhibition of intracellular RH strain tachyzoite replication: dose-dependent
T. gondii strain RH = experiment: Protection of fibroblast monolayers from T. gondii-mediated destruction
Excerpt: Photomicrographs were taken 5 days after treatment was begun.

[3] = test system: T. gondii Me49 strain tachyzoites; experiment: [3H]methyluracil incorporation: intracellular tachyzoite replication in human fibroblasts, Me49 strain; type: cell-based, Toxoplasma gondii; conditions: for Me49 strain more susceptible to growth inhibition than RH strain: ratio of IC50 RH / Me49
[4] = test system: T. gondii infected dendritic cells; type: cell-based, human
RH strain T. gondii [5] = experiment: Diamidino-2-phenylindole staining / microscopy of infected fibroblasts: tachyzoite and vacuole morphology; conditions: for tachyzoite morphology (bi-/multinucleated forms): diamidino-2-phenylindole staining
Method: Parasitophorous vacuoles and tachyzoite morphology were assessed by diamidino-2-phenylindole staining 24 hours later using an ultraviolet light with excitation at 410-430 nM.
Tachyzoites were released from infected fibroblasts by forced passage through a 27-gauge needle, and used within 2 hours of collection to infect new host cells. Tachyzoites were enumerated with a hemacytometer using Trypan blue dye. To evaluate nuclear morphology, infected cells were stained with diamidino-2phenylindole (Sigma) and examined by light microscopy at 400× magnification. To estimate the intensity of T. gondii infection, cytospin preparations of aliquots of cells in infected cultures were stained with Giemsa stain and examined by light microscopy using a 40× objective. At least 200 cells per condition were counted.

human p38 MAPK = human p38 MAPK (Homo sapiens, UniProt Q16539); conditions: cited from earlier work
[6] = test system: extracellular T. gondii tachyzoites; experiment: Incubation of extracellular tachyzoites with drug, wash, then [3H]uracil incorporation in fresh fibroblasts; type: cell-based, Toxoplasma gondii; conditions: 10 μM, extracellular tachyzoites incubated 1 hour, washed; at 48 hours
RH T. gondii = experiment: Combination with pyrimethamine: [3H]uracil incorporation in RH infected fibroblasts; type: cell-based, Toxoplasma gondii; conditions: SB203580 1 μM
Method: Fibroblasts were infected overnight and then treated with both drugs simultaneously or individually. Incorporated [^3H]methyuracil was measured 48 hours later. Data from one representative experiment is shown.
Pyrimethamine (Sigma) was dissolved in dimethylsulfoxide and added 1 hour after infection alone or in combination with other agents.

T. gondii [7] = experiment: T. gondii replication in dendritic cells; type: cell-based, Toxoplasma gondii
RH strain T. gondii [8] = experiment: Stage conversion (tachyzoite to bradyzoite) by flow cytometry, RH strain; type: cell-based, Toxoplasma gondii
Method: Bradyzoites highly express p36 (BSR4), and p21 in cell culture, and downregulate the tachyzoite-specific proteins SAG1 and SAG2 (38, 39). […] The drugs were replaced every 5 days. After 15 days, adherent, infected fibroblasts were recovered and freed intracellular organisms were analyzed by flow cytometry (FIG. 6A).
(§1) Tachyzoites were stained with murine monoclonal antibodies specific for tachyzoite protein (SAG-2, provided by Jacqueline Channon, Dartmouth) or bradyzoite-specific antibodies against p21 or p36 (32) followed by fixation with paraformaldehyde. Flow cytometric data were acquired on a FACS Calibur (Becton-Dickinson, Mountain View, Calif.) and analyzed using CellQuest software (Becton-Dickinson) with 5000 or more events evaluated for each condition. Analysis gates were set using appropriate antibody isotype controls, and dead cells were excluded based on light scatter characteristics.

RH strain tachyzoites = experiment: Tachyzoite cholesterol content (densitometric units); type: cell-based, Toxoplasma gondii; conditions: 10 μM
Method: (§2) The mean of triplicate replications with standard error bars is shown. “Control” is no drug treatment.
(§3) Cholesterol esterification activity was assessed by pulse-labeling of cells using radiolabeled fatty acid as substrate. […] At the time of drug addition, acyl-CoA:cholesterol acyltransferase activity was stimulated with 25-hydroxycholesterol plus cholesterol and cells were pulse-labeled for 2 hours with 20 μl sodium [^14C]oleate-albumin complex. Lipids were extracted with hexane/isopropanol (3:2 ratio) and the organic solvents evaporated under a nitrogen stream. Lipids were resuspended in chloroform, spotted on TLC silica gel G plates (Fisher, Fairlawn, N.J.) and separated in hexane/ethyl ether/glacial acetic acid (80:20:1 ratio). Cholesterol ester content was determined by liquid scintillation and normalized as pmol ^14C/mg protein. For cytochemical staining of 3-hydroxysterols, fibroblasts were seeded on poly-lysine coated coverslips, infected with RH T. gondii tachyzoites and incubated with drugs as described. After 3 days, cells were fixed in paraformaldehyde, rinsed in PBS, stained with filipin (Sigma) and examined by fluorescence microscopy using an excitation filter of 350-410 nm. Cholesterol content was determined in densitometric units measured with an Alpha Imager 2000 (Alpha Innotech Corporation, San Leandro, Calif.).

Me49 tachyzoites = experiment: Stage conversion (tachyzoite to bradyzoite) by flow cytometry, Me49 strain; type: cell-based, Toxoplasma gondii; conditions: Me49, after 5 days of treatment
Excerpt: as §1

[9] = test system: T. gondii acyl-CoA:cholesterol acyltransferase; experiment: Cholesterol esterification ([14C]oleate pulse labelling) in extracellular tachyzoites; type: biochemical, Toxoplasma gondii; conditions: 10 μM, extracellular RH tachyzoites, 7 hours
Method: as §2
One experiment representative of 4 is shown for each measure.
as §3, with “For cytochemical staining of 3-hydroxysterols, fibroblasts were seeded on poly-lysine coated coverslips, infected with RH T. gondii tachyzoites and incubated with drugs as described.” left out

[10] = infected MOI 3 for 2 days, then 10 μM, 5 days after treatment was begun
[11] = single dose 10 μM 1 hour after infection, MOI 3, three days after infection
[12] = fibroblasts, [3H]methyluracil incorporation

Chain of human p38 MAPK (Q16539 whole entry): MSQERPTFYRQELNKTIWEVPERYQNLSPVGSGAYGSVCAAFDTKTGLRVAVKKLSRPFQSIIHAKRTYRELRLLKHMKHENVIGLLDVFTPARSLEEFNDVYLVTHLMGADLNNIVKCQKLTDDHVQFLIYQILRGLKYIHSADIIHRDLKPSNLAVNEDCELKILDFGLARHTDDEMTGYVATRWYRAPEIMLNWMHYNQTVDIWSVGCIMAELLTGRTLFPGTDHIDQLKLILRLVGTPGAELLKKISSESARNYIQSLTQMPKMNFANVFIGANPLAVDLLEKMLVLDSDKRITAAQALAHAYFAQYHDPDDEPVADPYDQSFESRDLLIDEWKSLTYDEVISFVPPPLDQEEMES

In the case of `COc1cccc(-c2cc(=O)c3ccccc3o2)c1N` [PD098059], the “effect on intracellular T. gondii replication (Roisin et al.)” value (T. gondii [1]) is given as “slightly reduced”.

For `Oc1ccc(-c2nc(-c3ccc(F)cc3)c(-c3ccncc3)[nH]2)cc1` [SB202190, 4-(4-fluorophenyl)-2(4-hydroxphenyl)-5-(4 pyridyl)1H-imidazole], the “cross-resistance of SB203580-resistant tachyzoites” value (mutant tachyzoite SBRRH2) was “Cross-resistance to SB202190 was observed”, the IC50 ([2]; [3H]methyluracil incorporation, fibroblasts, estimated by linear interpolation, read-out: IC50 for inhibition of RH strain replication) was ~5000 nM and the “inhibition of intracellular RH strain tachyzoite replication” value [2] was “significant inhibition”. The “state of monolayer (FIG. 6 legend)” value (T. gondii strain RH; [10]) was “virtually intact”, the “state of infected fibroblast culture” value (T. gondii strain RH; [11]) was “healthy and confluent” and the IC50 ([3]; [3H]methyluracil incorporation, fibroblasts, drug added 6 hours after infection, estimated by linear interpolation, read-out: IC50 for inhibition of Me49 strain replication) was ~200 nM. For the same compound, the “Me49 strain more susceptible to growth inhibition than RH strain” value [3] was ~25 fold and the “reversal of T. gondii mediated immunosuppression” value (“reversal” below) [4] was “significantly reversed immunosuppression”.

In the case of `CCc1nc(-c2ccc(OC)cc2)[nH]c1-c1ccncc1` [SB202474], the “tachyzoite morphology (bi-/multinucleated forms)” value (shortened to “tachyzoite morphology”) (RH strain T. gondii [5]) is reported as “did not induce binucleated forms”, the “state of monolayer (FIG. 6 legend)” value (T. gondii strain RH; [10]) is reported as “completely destroyed” and the “state of infected fibroblast culture” value (T. gondii strain RH; [11]) is reported as “essentially destroyed”. For the same compound, the “p38 MAPK inhibitory activity” value (human p38 MAPK) was “without significant p38 MAPK inhibitory effects”, the “p38 MAPK inhibitory activity” value (human p38 MAPK; listed as SB202494) was “no anti-p38 MAPK activity” and the “reduction of [3H]uracil incorporation” value [6] was < 15%. The “effect on Me49 tachyzoite replication” value [3, 12] was “no significant effect” and the “reversal” value [4] was “did not reverse immunosuppression”.

In the case of `C[S+]([O-])c1ccc(-c2nc(-c3ccc(F)cc3)c(-c3ccncc3)[nH]2)cc1` (centres unmarked) [SB203580, 4(4-fluorophenyl)-2-(4-methylsulfinylphenyl)-5(4-pyridyl)1H-imidazole], the “inhibition of RH T. gondii replication, single agent” value (RH T. gondii) is reported as “effective dose”, the “T. gondii replication in dendritic cells” value (T. gondii [7]) is reported as “does reduce” and the “cyst-like structures in infected fibroblasts” value (RH strain T. gondii [5]; after 3 to 5 days) is reported as “developed cyst-like structures”. For the same compound, the “tachyzoite morphology” value (RH strain T. gondii [5]) was “induced formation of tachyzoites with two or more nuclei”, the “inhibition of replication of SBRRH2 in fibroblasts” value (mutant tachyzoite SBRRH2; 10 μM) was “no detectable capacity to inhibit” and the “inhibition of intracellular RH strain tachyzoite replication” value [2] was “significantly inhibited”. For the same compound, the “p36+ organisms (bradyzoite marker)” value (RH strain T. gondii [8]; 10 μM SB203580 or 1 μg pyrimethamine, 15 days) was “significantly higher number”, the “p21+ cells (bradyzoite marker)” value (RH strain T. gondii [8]; SB203580) was “not evident” and the “SAG2+ organisms (tachyzoite marker)” value (RH strain T. gondii [8]; after 15 days of culture with SB203580, 100% at culture outset) was < 15%. For the same compound, the tachyzoite cholesterol content (RH strain tachyzoites) was “only minimally reduced”, the “infected fibroblast monolayers under constant drug” value (T. gondii strain RH; constant 10 μM, four weeks) was “not destroyed” and the “monolayer destroyed (FIG. 6 legend)” value (T. gondii strain RH; [10]) was “approximately 50%”. The “infected fibroblast culture destroyed” value (T. gondii strain RH; [11]) was “approximately 50%”, the SAG2 expression (Me49 tachyzoites) was “decreased” and the p21 expression (Me49 tachyzoites) was “significantly increased”. For the same compound, the “Me49 strain more susceptible to growth inhibition than RH strain” value [3] was “approximately 12 fold”, the “acyl-CoA:cholesterol acyltransferase activity” value [9] was “did not interfere” and the “reversal” value [4] was “significantly reversed immunosuppression”.

With `N#CC(=C(/N)Sc1ccccc1N)/C(C#N)=C(\N)Sc1ccccc1N` [U0126] the “tachyzoite morphology” value (RH strain T. gondii [5]) was “did not induce binucleated forms”, the “inhibition of intracellular RH strain tachyzoite replication” value [2] was “no significant effect” and the “effect on Me49 tachyzoite replication” value [3, 12] was “no significant effect”. The “reversal” value [4] was “did not reverse immunosuppression”.

For `O=c1c(-c2ccc(O)cc2)coc2cc(O)cc(O)c12` [genistein], the “effect on intracellular T. gondii replication (Roisin et al.)” value (T. gondii [1]) is given as “no significant effect”.

For `[O]=[V]([O-])([O-])[O-]` [vanadate], the “state of infected fibroblast culture” value (T. gondii strain RH; [11]) was “essentially destroyed”.
